From patent US9326960B2, “Composition for preventing or treating eye diseases, containing S-allyl-L-cysteine as active ingredient, and pharmaceutical formulation containing same” (PHARMAKING CO., LTD., priority 2012, dated 2016)

What was measured:
[1] = test system: Human retinal pigment epithelial cell line (ARPE-19); experiment: Cytoprotective activity against blue light-induced apoptosis of A2E-accumulated ARPE-19 cells (MTT assay); assay type: cell-based; conditions: A2E-accumulated ARPE-19 exposed to blue light; for increase of cell viability: compared to the negative control
Description: The retinal pigment cell line used in experiments and analyses of the present invention arose from a retinal pigment epithelial cell line (ARPE-19: ATCC no. CRL-2302) purchased from the ATCC (American Type Culture Collection, Manassas Va.), and was maintained by passage as described in document (Sparrow, J. R. et al., A2E, alipofuscin fluorophore, in human retinal pigmented epithelial cells in culture. Invest Ophthalmol Vis Sci 1999, 40(12), 2988-95).
Briefly, the retinal pigment cell line was cultured in Dulbecco's modified Eagle's medium (DMEM, Gibco, USA) supplemented with antibiotics (Gibco, USA) including 100 U/ml penicillin, […] streptomycin, and amphotericin B, and 10% fetal bovine serum (Hyclone, USA) at 37° C. under 5% CO2 conditions. The cells were allowed to adhere to the bottom of the culture plate, and cultured, with passage by treatment with a mixture of 1:4 trypsin:10% fetal bovine serum (Gibco, USA)-supplemented medium upon confluence.
For use in experiments, the cells were seeded at a density of 5×10^4 cells/well into 6-well plates.
Cytoprotective Activity of S-Allyl-Cysteine Against Blue Light-Induced Apoptosis of A2E-Accumulated Human Retinal Pigment Epithelial Cell Line CARPE-19)
Human retinal pigment cell line (ARPE-19) was seeded at a density of 5×10^4 cells/well into 96-well plates, and incubated with 20 μM A2E for 7 days to accumulate A2E. Then, the cells were treated with a negative control, a positive control (lutein: 20 μM), or predetermined concentrations of S-allyl-cysteine (1, 10, 100 μM) before exposure to blue light as described above.
Thereafter, cell viability was measured using 3-(4,5-dimethylthiazol-2-yl)-2,5-diphenyltetrazoliumbromide (MTT) assay. An MTT assay is a standard colorimetric assay for assessing cell viability, usually in a lab. Generally, viable cells are counted using a hemocytometer, or by measuring optical density; however, this method requires too much time and labor for large numbers of cells, and is apt to yield inaccurate results. As an alternative, the MTT assay is designed such that the yellow substrate tetrazolium MTT is reduced by metabolically active cells, in part by the action of mitochondrial dehydrogenase enzymes, into purple formazan that can be solubilized and quantified by spectrophotometric means. This assay can analyze the proliferation behavior of large numbers of cells rapidly and accurately. […] More viable cells produce a greater amount of formazan crystals, recoding higher absorbance.
According to the MTT assay (Sigma-Aldrich Inc., St. Louis, Mo., U.S.A.), DMEM containing 0.5 mg/ml MTT was added to each well and incubated at 37° C. for 2 hrs in an incubator under dark conditions. […]

[2] = Suppressive activity against blue light-induced oxidation of A2E (cell-free, absorbance); conditions: 20 μM A2E in PBS, blue light ca. 430 nm, compared to non-treated
Protocol: Assay of S-Allyl-Cysteine for Suppressive Activity Against Blue Light-Induced Oxidation of A2E S-Allyl-cysteine was assayed for the ability to suppress the blue light-induced oxidation of A2E. First, 100 μM A2E was diluted to 20 μM in phosphate buffered saline (PBS), and 200 μl of the dilution was placed in each well of 96-well plates. Then, a negative control, a positive control (lutein 20 μM), or predetermined concentrations of S-allyl-cysteine (1, 10, 100 μM) were added to the dilution, and mixed by pipetting. An LED lamp emitting blue light with a central wavelength of ca. 430 nm was operated above the microplates to induce photo-oxidation until the A2E absorbance was reduced by half. Absorbance was read on an ELISA before and after the induction of photo-oxidation. The measurements were applied to an A2E standard curve to obtain concentrations of A2E, and the difference in concentration before and after exposure to blue light was used to obtain the concentration of oxidized A2E. From the data, the inhibitory activity of the sample against A2E photo-oxidation was calculated according to the following Mathematical Formula 1. In Formula 1, Abs. means absorbance. [formula] A=Abs. of A2E−Abs. of A2E+blue light B={Abs. of A2E+sample)−Abs. of sample}−{(Abs. of A2E+sample+blue light)−(Abs. of sample−Abs. of sample+blue light)} In order to evaluate the inhibitory activity of S-allyl-L-cysteine against A2E photooxidation, concentrations of oxidized A2E were measured after exposure to blue radiation as described in Experimental Example 1, and the results are depicted in FIG. 1.

| Compound | cell viability versus negative control (result in words) ([1]; lutein 20 μM) | decrease of concentration of oxidized A2E ([2]; 1 μM S-allyl-cysteine) | decrease of concentration of oxidized A2E ([2]; 10 μM S-allyl-cysteine) | decrease of concentration of oxidized A2E ([2]; 100 μM S-allyl-cysteine) | increase of cell viability ([1]; 1 μM) | increase of cell viability ([1]; 10 μM) | increase of cell viability ([1]; 100 μM) |
| --- | --- | --- | --- | --- | --- | --- | --- |
| CC1=C[C@H](O)CC(C)(C)[C@H]1/C=C/C(C)=C/C=C/C(C)=C/C=C/C=C(C)/C=C/C=C(C)/C=C/C1=C(C)C[C@@H](O)CC1(C)C [positive control, lutein, reference compound] | significant difference in cell viability |  |  |  |  |  |  |
| C=CCSC[C@H](N)C(=O)O [S-allyl-cysteine, S-allyl-L-cysteine] |  | 20% | 32% | 41% | 63% | 134% | 167% |
